Laboratory results taken from patent publication US10087142B2, “Azetidine derivatives useful as modulators of cortical cathecolaminergic neurotransmission” (Integrative Research Laboratories Sweden AB, priority 2015, dated 2018).
Read-outs that look alike come from different tables or passages of the source. Marks after values point to notes of the source that are not given here.

Columns and labels:
[1] = system: non-pre-treated Sprague-Dawley rats; experiment: Locomotor activity in drug-naïve rats (behaviour test); type: in vivo, rat; details: recorded 60 minutes, n = 5
Description: The effect of compounds in the present disclosure on locomotor activity in drug-naïve rats was also investigated. The animals were placed in the motility meters immediately after drug administration and locomotor activity was recorded for 60 minutes (counts/60 min±SEM). The results are presented as percent of control.
Behavioural activity was measured using eight Digiscan activity monitors (RXYZM (16) TAO, Omnitech Electronics, Columbus, Ohio, USA), connected to an Omnitech Digiscan analyzer and an Apple Macintosh computer equipped with a digital interface board (NB DIO-24, National Instruments, USA). Each activity monitor consisted of a quadratic metal frame (W×L=40 cm×40 cm) equipped with photo beam sensors. During measurements of behavioural activity, a rat was put in a transparent acrylic cage (W×L×H, 40×40×30 cm) which in turn was placed in the activity monitor. Each activity monitor was equipped with three rows of infrared photo beam sensors, each row consisting of 16 sensors. Two rows were placed along the front and the side of the floor of the cage, at a 90° angle, and the third row was placed 10 cm above the floor to measure vertical activity. Photo beam sensors were spaced 2.5 cm apart. Each activity monitor was fitted in an identical sound and light attenuating box containing a weak house light and a fan.
The computer software was written using object oriented programming (LabVIEW™, National instruments, Austin, Tex., USA).
Behavioural data from each activity monitor, representing the position (horizontal center of gravity and vertical activity) of the animal at each time, were recorded at a sampling frequency of 25 Hz and collected using a custom written LABView™ application. The data from each recording session were stored and analyzed with respect to distance traveled. Each behavioural recording session lasted 60 min, starting approximately 5 min after the injection of test compound.
Compounds disclosed herein have been tested for effects on spontaneous locomotor activity in non-pre-treated Sprague-Dawley rats (based on accumulated distance traveled 0-60 min post dosing), and with doses up to 33 μmol/kg (s.c.).

[2] = system: monoamine transmitters (NA, DA and 5-HT); experiment: In vivo brain microdialysis of monoamines in striatum and frontal cortex; set-up: species or system rat; details: rats; for response vs control in vivo at 16.7 µmol/kg: Rattus norvegicus, sc
From the text: The microdialysis technique (See, for instance, Collin and Ungerstedt, Microdialysis: user's guide, Carnegie Medicin, Stockholm, 1988) is a well-established technique for measuring extracellular levels of neurotransmitters (Ungerstedt, J Int Med, 1991, 230; 365-73). The microdialysis technique was used to measure the effect of compounds disclosed herein upon the efflux of monoamine transmitters (NA, DA and 5-HT) in striatum and frontal cortex in conscious, freely moving rats.
Male Sprague-Dawley rats weighing 280-320 g were used throughout the experiments. Before the experiment the animals were housed in groups, maximum five animals in each cage, with free access to water and food. The animals were housed at least one week prior to surgery and use in the experiments.
A modified version (Waters et al., J Neural Transm Gen Sect, 1994, 98(1); 39-55) of the I-shaped probe (Santiago and Westerink, N-S Arch Pharmacol, 1990, 342; 407-14) with the AN69 polyacrylonitrile/sodium methyl sulfonate copolymer (HOSPAL; o.d/i.d. 310/220 μm: dialysis membrane (Gambro, Lund, Sweden) was used in the microdialysis experiments. In the dorsal striatum, probes with an exposed length of 3 mm of dialysis membrane were used and in the prefrontal cortex the corresponding length was 2.5 mm. The rats were operated under isoflurane inhalation anesthesia while mounted into a Kopf stereotaxic instrument. Coordinates were calculated relative to bregma; dorsal striatum AP+1.0, ML±2.6, DV 6.2; Pf cortex, AP 15+3.2, ML+1.2, DV −4.08°, according to Paxinos and Watson (New York, Academic Press, 1986; FIG. 8 and FIG. 14). The dialysis probe was positioned in a burr hole under stereotaxic guidance and cemented with phosphatine dental cement (DAB Dental).
The rats were housed individually in cages for 48 h before the dialysis experiments, allowing them to recover from surgery and minimizing the risk of drug interactions with the anesthetics during the following experiments. During this period the rats had free access to food and water.
On the day of the experiment the rats were connected to a micro-perfusion pump via a swivel and were replaced in the cage where they could move freely within its confinements. The perfusion medium was a Ringer's solution containing (in mmol/I): NaCl; 140, CaCl2; 1.2, KCl; 3.0, MgCl2; 1.0 (Moghaddam and Bunney. Neurochem., 1989, 53; 652-4). The pump was set to a perfusion speed of 2 μl/min and 40 μl sample volume were collected every 20 min.
The rats were perfused for at least 40 min before sampling began. Five fractions of each 20 min were collected and the last three were used for the establishment of the baseline. After collection of baseline fractions, the pharmacological challenge to the dialysis experiment started. Test compounds were administrated by injection (s.c.) in a volume of 5 ml/kg, with 0.9% NaCl (saline) as vehicle.
The analytical method were based on two chromatographic separations dedicated for amines or acids. Two chromatographic systems shared a common auto injector with a 10-port valve and two sample loops for simultaneous injection on the two systems.
The acids were separated by reversed phase chromatography while the amines were separated by reversed phase ion pairing chromatography preceded by a reverse phase separation in a column switching configuration. Three separation columns (Luna C18 (2), dp 3 μm, 2 mm i.d., Phenomenex) of different lengths were used. Electrochemical detection was accomplished on glassy carbon electrodes (MF-1000, Bioanalytical Systems, Inc.)
The aqueous mobile phase (0.6 ml/min) for the acid system contained citric acid (40 mM, dipotassium hydrogen phosphate 10 mM, methanol 8-11% (v/v) and EDTA 0.1 mM. Column length was 30 mm and detection potential relative to Ag/AgCl reference was 0.74V. […]

[3] = 16.7 μmol/kg s.c., frontal cortex dialysate, Fumarate Salt
[4] = 16.7 μmol/kg s.c., striatum dialysate, Fumarate Salt
[5] = 16.7 μmol/kg s.c., striatum dialysate, read-out: DA Stri ± SEM, maximum effect compared to baseline
[6] = 50 μmol/kg s.c., striatum dialysate

Row | SMILES | locomotor activity, percent of control means ([1]; 11 μmol/kg s.c.) [%] | locomotor activity, percent of control means ([1]; 33 μmol/kg s.c.) [%] | 5-HT FC ± SEM, maximum effect compared to baseline [2, 3] | DA FC ± SEM, maximum effect compared to baseline [2, 3] | NA FC ± SEM, maximum effect compared to baseline [2, 3] | 5-HT Stri ± SEM, maximum effect compared to baseline [2, 4] | NA Stri ± SEM, maximum effect compared to baseline [2, 4] | response vs control in vivo at 16.7 µmol/kg [2, 5] [%] | NA Stri ± SEM, maximum effect compared to baseline ([2]; 16.7 μmol/kg s.c., striatum dialysate) | 5-HT FC ± SEM, maximum effect compared to baseline ([2]; 50 μmol/kg s.c., frontal cortex dialysate) | 5-HT Stri ± SEM, maximum effect compared to baseline [2, 6] | DA Stri ± SEM, maximum effect compared to baseline [2, 6] | NA Stri ± SEM, maximum effect compared to baseline [2, 6] | response vs control in vivo at 16.7 µmol/kg ([2]; 16.7 μmol/kg s.c., frontal cortex dialysate, read-out: 5-HT FC ± SEM, maximum effect compared to baseline) [%] | response vs control in vivo at 16.7 µmol/kg ([2]; 16.7 μmol/kg s.c., frontal cortex dialysate, read-out: DA FC ± SEM, maximum effect compared to baseline) [%] | response vs control in vivo at 16.7 µmol/kg ([2]; 16.7 μmol/kg s.c., frontal cortex dialysate, read-out: NA FC ± SEM, maximum effect compared to baseline) [%] | response vs control in vivo at 16.7 µmol/kg ([2]; 16.7 μmol/kg s.c., striatum dialysate, read-out: 5-HT Stri ± SEM, maximum effect compared to baseline) [%]
1 | Fc1cc(F)cc(C(F)C2CNC2)c1.O=C(O)/C=C/C(=O)O (single isomer, unassigned; (-)) [Example 3, (−)-3-[(3,5-Difluorophenyl)(Fluoro)Methyl]Azetidine Fumarate Salt] | 68 | 46 | 137 ± 16^c percent of control | 444 ± 51^c percent of control | 534 ± 45^c percent of control | 124 ± 6^c percent of control | 137^a percent of control | 116 ± 4 | – | – | – | – | – | – | – | – | –
2 | Cl.Fc1cccc(C(F)C2CNC2)c1F (single isomer, unassigned; (-)) [Example 1, (−)-3-[(2,3-Difluorophenyl)(Fluoro)Methyl]Azetidine Hydrochloric Acid Salt] | 61 | 91 | – | – | – | – | – | 135 ± 19 | 150 ± 30^c percent of control | 188 ± 16^c percent of control | 184^a percent of control | 204 ± 90^b percent of control | 145^a percent of control | 146 ± 8 | 495 ± 58 | 688 ± 102 | 171 ± 21
